Results reported in patent US10654805B2, “Pyridinethiones, pharmaceutical compositions thereof, and their therapeutic use for treating a proliferative, inflammatory, neurodegenerative, or immune-mediated disease” (BioTheryX, Inc., priority 2016, dated 2020).

Experiments:
[1] = test system: myelin basic protein (MBP); assay: Induction of myelin basic protein (MBP) production in MO3-13 cells, slot blot with anti-MBP antibody; format: cell-based, human; conditions: with and without cuprizone; for relative MBP binding compared with vehicle control: MO3-13 cells, p<0.0001, FIG. 2; for relative MBP binding (anti-MBP antibody): MO3-13 whole cell extracts
Procedure: Whole cell extracts of MO3-13 cells were prepared using 6 M urea. An aliquot of 100 μL was removed and diluted with an equal volume of 6 M urea. A 5 μL aliquot was removed and quantitated for protein levels. Total protein concentrations were determined using the BioRad protein assay method at 595 nm. Total protein in the whole cell extracts was determined and a ratio of recovered protein was used to calculate the relative amount of MBP in the whole cell extracts. Whole cell extracts were diluted to 0.1 mg/mL. Extracts containing 2.5 μg of protein were applied onto nitrocellulose membrane in a slot blotter using a vacuum method to draw the sample onto the membrane. The non-protein sites on the membrane were blocked with 2% ECL blocking reagent diluted in PBS-Tween20. Primary anti-Bovine MBP was diluted in the same block solution at 300×. The primary antibody was incubated one hour at room temperature with gentle shaking. The blot was developed using enhanced ECL (GE Healthcare) method. Image of bound antibody were captured using Image Lab software driving a Bio-Rad ChemiDoc XRS+ image capture system. The data was graphically represented using Graph Pad Prism software.

[2] = Cuprizone model in mice: body weight, deaths and toxicity; format: in vivo
Procedure: (§1) The ability of compound A1 to effect the demyelination process was evaluated in a cuprizone model of demyelination in mice. Thirty-six male C57/B6 mice aged 7-8 weeks were acclimated for 1 week prior to study commencement and housed 2 mice per cage. Mice in Group 1 received control chow without cuprizone, and all other mice were fed mouse diet containing 0.2% cuprizone for 5 weeks. Food was changed every other day, body and food weights were obtained daily. All cuprizone and control food was stored in vacuum containers and stored frozen until use.
(§2) Dosing solutions were prepared fresh on each day of dosing. Compound A1 was first dissolved in DMSO in a volume of 10% of the final volume, followed by addition of solutol HS-15 in a volume of 10% of the final volume and a solution of 10% hydroxypropyl-β-cyclodextrin in a volume of 80% of the final volume. Unless otherwise noted, all test articles were administered in a volume of 0.1 mL/10 g body weight.
(§3) During this process, mice received either vehicle or compound A1 at 50 mg/kg or 100 mg/kg via intraperitoneal injection daily. At the end of 5 weeks, the mice were sacrificed and the brain histology of each group compared to controls that had not received cuprizone. Statistical differences between treatment groups were determined using Mann-Whitney Rank Sum or ANOVA tests with a critical value of 0.05.
All animals were weighed every day in order to assess possible differences in animal weight among treatment groups as an indication of possible toxicity resulting from the treatments. Animals with a weight loss of more than 20% of their starting weight were euthanized. Mice with weight loss of more than 15% of their starting weight were not treated again until weight loss recovered to less than 5% of their starting weight. […] One animal in the cuprizone/vehicle group was also euthanized on Day 20 due to poor condition and weight loss. All remaining mice survived until the end of the study.

[3] = test system: myelin basic protein (MBP); assay: Cuprizone model of demyelination in mice: MBP immunohistochemistry staining score; format: in vivo
Procedure: as §1, §2, §3
(§4) Evaluation of the myelin content of the brains was focused on three areas—the rostral corpus callosum, the dorsal corpus callosum and the cerebellum. The extent of demyelination in both sagittal sections was determined by a board certified veterinary pathologist blinded to animal treatment. Percent demyelination was scored as follows: demyelination ranging from 0 to 10% of the total anatomical structure was scored as 0; demyelination ranging from 11 to 30% of the total anatomical structure was scored as 1; demyelination ranging from 31 to 60% of the total anatomical structure was scored as 2; demyelination ranging from 61 to 90% of the total anatomical structure was scored as 3; and demyelination ranging from 91 to 100% of the total anatomical structure was scored as 4. The extent of MBP staining intensity was based on a 1-4 scale, where 4 was the highest level of staining seen (100%).
In addition, immunohistochemistry was performed for myelin basic protein (MBP), and slides were analyzed for the intensity of MBP staining in the same regions. The mean rostral corpus callosum MBP staining score for the control groups was 4. In the vehicle treated group receiving cuprizone chow, the mean rostral corpus callosum m MBP staining score was 2.9. In the group receiving cuprizone chow and compound A1 at 50 mg/kg, the mean rostral corpus callosum MBP staining score was 3.2. Additional analysis of the rostral corpus callosum MBP staining was conducted using an ANOVA test.

[4] = test system: C57/B6 mice; assay: Cuprizone model of demyelination in mice: brain myelination scores; format: in vivo
Procedure: as §1, §2, §3, §4

| SMILES | relative MBP binding compared with vehicle control [1] | relative MBP binding (anti-MBP antibody) [1] | average loss of starting weight during the study ([2]; 50 mg/kg IP QD, cuprizone food, 5 weeks) [%] | toxicity ([2]; 50 mg/kg daily, cuprizone treatment) | mice that suddenly started to lose weight and die ([2]; 100 mg/kg IP QD, cuprizone food, between Days 20 and 24, despite discontinuation of dosing) | mean cerebellum MBP staining score ([3]; 50 mg/kg IP QD, cuprizone chow 5 weeks, 1-4 scale, 4 highest, not significant) | mean rostral corpus callosum MBP staining score ([3]; 50 mg/kg IP QD, cuprizone chow 5 weeks, 1-4 scale, 4 highest, not significant vs vehicle) | mean caudal corpus callosum MBP staining score ([3]; 50 mg/kg IP QD, cuprizone chow 5 weeks, 1-4 scale, 4 highest, p=0.0064 vs vehicle) | MBP expression in the rostral corpus callosum vs vehicle treated group ([3]; cuprizone mice) | MBP expression in the dorsal corpus callosum vs mice receiving vehicle ([3]; cuprizone mice, p=0.0064) | mean cerebellar myelination score ([4]; 50 mg/kg IP QD, cuprizone chow 5 weeks, not significant) | mean rostral corpus callosum myelination score ([4]; 50 mg/kg IP QD, cuprizone chow 5 weeks, not significant vs vehicle) | mean caudal corpus callosum myelination score ([4]; 50 mg/kg IP QD, cuprizone chow 5 weeks, p=0.0012 vs vehicle) | demyelination in the rostral corpus callosum vs vehicle treated group ([4]; cuprizone mice) | demyelination in the dorsal corpus callosum vs mice receiving vehicle ([4]; cuprizone mice, p=0.0012) |
| --- | --- | --- | --- | --- | --- | --- | --- | --- | --- | --- | --- | --- | --- | --- | --- |
| Cc1cc(C(F)(F)F)cc(=S)[nH]1 [A3, 6-methyl-4-trifluoromethylpyridine-2(1H)-thione] | significantly increased above vehicle control | elevated relative MBP binding | – | – | – | – | – | – | – | – | – | – | – | – | – |
| Cc1cc(C2CCCCC2)[nH]c(=S)c1 [compound A1, 6-cyclohexyl-4-methylpyridine-2(1H)-thione] | significantly increased above vehicle control | elevated relative MBP binding | 10.6 | no evidence of toxicity beyond that seen in the vehicle group | nine often mice | 3.8 | 3.2 | 3.1 | no statistically significant differences | significantly less demyelination | 3.2 | 2.1 | 2.1 | no statistically significant differences | significantly less demyelination |
| Cc1cc(CC(C)CC(C)(C)C)[nH]c(=S)c1 (stereo not drawn) [compound A2, 4-methyl-6-(2,4,4-trimethylpentyl)pyridine-2(1H)-thione] | – | elevated relative MBP binding | – | – | – | – | – | – | – | – | – | – | – | – | – |
